In patent publication US9670227B2, “Thienopyrimidine derivatives, a process for their preparation and pharmaceutical compositions containing them” (LES LABORATOIRES SERVIER, priority 2013, dated 2017) one finds IC50 data, which are given here for 14 compounds.

One test concerns the target Mcl-1 protein (UniProtKB primary accession number: Q07820) (Homo sapiens, UniProt Q07820). Nature of the test: Inhibition of Mcl-1 by fluorescence polarisation, Method 1. In kind it is binding. The conditions noted are these: read-out: IC50 (M) Mcl-1 FP. The essentials:
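Fluorescence polarisation competition with an 11-point compound dilution series (final DMSO 5%). Mcl-1 protein at 5 nM and fluorescein-labelled ligand at 1 nM (final) in 10 mM HEPES, 150 mM NaCl, 0.05% Tween 20, pH 7.4.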
A general note: Polarisation of emitted light reports the rotation of a fluorescent probe.

In test [1] the test system is H929 multiple myeloma tumour line. Nature of the test: In vitro cytotoxicity, Microculture Tetrazolium Assay. It counts as cell-based. The settings on record: H929 cells, 48 hours exposure, MTT, read-out: IC50 (μM) MTT H929. As for the experimental part: The cytotoxicity studies were carried out on the H929 multiple myeloma tumour line.
The cells are distributed onto microplates and exposed to the test compounds for 48 hours.

The mark [2] stands for this setting: fluorescence polarisation, Method 1, or Method 2.
Setting [3] is: fluorescence polarisation test, Method 2 values are underlined in the patent (underlining not visible here).

Where two headings read alike, the source gives them in different places.

Chain of Mcl-1 protein (Q07820 whole entry): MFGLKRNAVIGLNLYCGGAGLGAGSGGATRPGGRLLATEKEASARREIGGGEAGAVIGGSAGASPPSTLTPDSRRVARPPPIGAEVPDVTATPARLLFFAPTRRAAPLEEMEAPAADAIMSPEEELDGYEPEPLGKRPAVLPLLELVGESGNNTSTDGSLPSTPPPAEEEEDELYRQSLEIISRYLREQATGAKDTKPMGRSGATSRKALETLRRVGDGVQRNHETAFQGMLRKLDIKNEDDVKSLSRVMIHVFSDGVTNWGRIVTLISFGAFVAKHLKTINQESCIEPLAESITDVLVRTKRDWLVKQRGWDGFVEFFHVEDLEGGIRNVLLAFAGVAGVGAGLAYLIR

On to `CCCCn1nccc1COc1ccccc1CC(Oc1ncnc2sc(-c3ccc(OCC)cc3)c(-c3ccc(OCCN4CCN(C)CC4)c(Cl)c3C)c12)C(=O)O` [Example 604, (2R)-3-{2-[(1-butyl-1H-pyrazol-5-yl)methoxy]phenyl}-2-{[(5Sa)-5-{3-chloro-2-methyl-4-[2-(4-methylpiperazin-1-yl)ethoxy]phenyl}-6-(4-ethoxyphenyl)thieno[2,3-d]pyrimidin-4-yl]oxy}propanoic acid], for which the IC50 on Mcl-1 protein (setting [2]) was 5.7e-09 M; in test [1] (Homo sapiens, NCI-H929, 48 h), 0.064 µM.
Turning to `Cc1c(-c2c(-c3ccco3)sc3ncnc(O[C@H](Cc4ccccc4OCc4ccnc(N)n4)C(=O)O)c23)ccc(OCCN2CCN(C)CC2)c1Cl` [Example 250, (2R)-3-{2-[(2-aminopyrimidin-4-yl)methoxy]phenyl}-2-{[(5Sa)-5-{3-chloro-2-methyl-4-[2-(4-methylpiperazin-1-yl)ethoxy]phenyl}-6-(furan-2-yl)thieno[2,3-d]pyrimidin-4-yl]oxy}propanoic acid], the half-inhibitory concentration (IC50) on Mcl-1 protein (setting [3]) came to 3.6e-09 M; in test [1] it was 0.499 µM.
Consider `COc1nccc(COc2ccccc2CC(Oc2ncnc3sc(-c4ccc(F)c(F)c4)c(-c4ccc(OCCN5CCN(C)CC5)c(Cl)c4C)c23)C(=O)O)n1` [Example 706, (2R)-2-{[(5Sa)-5-{3-chloro-2-methyl-4-[2-(4-methylpiperazin-1-yl)ethoxy]phenyl}-6-(3,4-difluorophenyl)thieno[2,3-d]pyrimidin-4-yl]oxy}-3-{2-[(2-methoxypyrimidin-4-yl)methoxy]phenyl}propanoic acid], for which the IC50 on Mcl-1 protein (setting [2]) worked out at 3.6e-09 M; in test [1] (Homo sapiens, NCI-H929, 48 h), 0.04 µM.
On the same counts, the results for `CC#Cc1sc2ncnc(OC(Cc3ccccc3OCc3ccnc(CCOC)n3)C(=O)O)c2c1-c1ccc(OCCN2CCN(C)CC2)c(Cl)c1C` [Example 484, (2R)-2-{[(5Sa)-5-{3-chloro-2-methyl-4-[2-(4-methylpiperazin-1-yl)ethoxy]phenyl}-6-(prop-1-yn-1-yl)thieno[2,3-d]pyrimidin-4-yl]oxy}-3-(2-{[2-(2-methoxyethyl)pyrimidin-4-yl]methoxy}phenyl)propanoic acid] are 3.4e-09 M and 0.014 µM.
On the same counts, the results for `CC#Cc1sc2ncnc(OC(Cc3ccccc3OCC)C(=O)O)c2c1-c1ccc(OCCN2CCN(C)CC2)c(Cl)c1C` [Example 481, (2R)-2-{[(5Sa)-5-{3-chloro-2-methyl-4-[2-(4-methylpiperazin-1-yl)ethoxy]phenyl}-6-(prop-1-yn-1-yl)thieno[2,3-d]pyrimidin-4-yl]oxy}-3-(2-ethoxyphenyl)propanoic acid] are 5.4e-09 M and 0.643 µM.
As to `Cc1cc(COc2ccccc2CC(Oc2ncnc3sc(-c4ccco4)c(-c4ccc(OCCN5CCN(C)CC5)c(Cl)c4C)c23)C(=O)O)n(C)n1` [Example 225, (2R)-2-{[(5Sa)-5-{3-chloro-2-methyl-4-[2-(4-methylpiperazin-1-yl)ethoxy]phenyl}-6-(furan-2-yl)thieno[2,3-d]pyrimidin-4-yl]oxy}-3-{2-[(1,3-dimethyl-1H-pyrazol-5-yl)methoxy]phenyl}propanoic acid], the IC50 on Mcl-1 protein (setting [3]) was found to be 8.4e-09 M; in test [1] (Homo sapiens, NCI-H929, 48 h), 0.105 µM.
On the same counts, the results for `Cc1c(-c2c(-c3ccco3)sc3ncnc(OC(Cc4ccccc4OCc4cnccn4)C(=O)O)c23)ccc(OCCN2CCN(C)CC2)c1Cl` [Example 275, (2R)-2-{[(5Sa)-5-{3-chloro-2-methyl-4-[2-(4-methylpiperazin-1-yl)ethoxy]phenyl}-6-(furan-2-yl)thieno[2,3-d]pyrimidin-4-yl]oxy}-3-[2-(pyrazin-2-ylmethoxy)phenyl]propanoic acid] are 4.5e-09 M and 0.051 µM.
For the compound `CCc1sc2ncnc(OC(Cc3ccccc3)C(=O)O)c2c1-c1ccc(OCCc2ccncc2)c(Cl)c1C` [Example 397, (2R)-2-[((5Sa)-5-{3-chloro-2-methyl-4-[2-(pyridin-4-yl)ethoxy]phenyl}-6-ethylthieno[2,3-d]pyrimidin-4-yl)oxy]-3-phenylpropanoic acid], the IC50 on Mcl-1 protein (setting [2]) was 8e-09 M; in test [1] (Homo sapiens, NCI-H929, 48 h) it was 15.7 µM.
For `Cc1cccc(COc2ccccc2CC(Oc2ncnc3sc(-c4ccco4)c(-c4ccc(OCCN5CCN(C)CC5)c(Cl)c4C)c23)C(=O)O)n1` [Example 235, (2R)-2-{[(5Sa)-5-{3-chloro-2-methyl-4-[2-(4-methylpiperazin-1-yl)ethoxy]phenyl}-6-(furan-2-yl)thieno[2,3-d]pyrimidin-4-yl]oxy}-3-{2-[(6-methylpyridin-2-yl)methoxy]phenyl}propanoic acid], the IC50 on Mcl-1 protein (setting [3]) stood at 5.1e-09 M; in test [1] (Homo sapiens, NCI-H929, 48 h), 0.098 µM.
In the same order, the values of `COc1nccc(COc2ccccc2CC(Oc2ncnc3sc(-c4ccc(F)c(OC)c4)c(-c4ccc(OCCN5CCN(C)CC5)c(Cl)c4C)c23)C(=O)O)n1` [Example 383, (2R)-2-{[(5Sa)-5-{3-chloro-2-methyl-4-[2-(4-methylpiperazin-1-yl)ethoxy]phenyl}-6-(4-fluoro-3-methoxyphenyl)thieno[2,3-d]pyrimidin-4-yl]oxy}-3-{2-[(2-methoxypyrimidin-4-yl)methoxy]phenyl}propanoic acid] are 5.6e-09 M and 0.03 µM.
In the same order, the values of `Cc1c(-c2c(-c3ccc(Cl)o3)sc3ncnc(OC(Cc4ccccc4OCc4cnccn4)C(=O)O)c23)ccc(OCCN2CCN(C)CC2)c1Cl` [Example 374, (2R)-2-{[6-(5-chlorofuran-2-yl)-(5Sa)-5-{3-chloro-2-methyl-4-[2-(4-methylpiperazin-1-yl)ethoxy]phenyl}thieno[2,3-d]pyrimidin-4-yl]oxy}-3-[2-(pyrazin-2-ylmethoxy)phenyl]propanoic acid] are 9.2e-09 M and 0.038 µM.
For the compound `COc1cc(F)ccc1CC(Oc1ncnc2sc(-c3ccco3)c(-c3ccc(OCCN4CCN(C)CC4)c(Cl)c3C)c12)C(=O)O` [Example 346, (2R)-2-{[(5Sa)-5-{3-chloro-2-methyl-4-[2-(4-methylpiperazin-1-yl)ethoxy]phenyl}-6-(furan-2-yl)thieno[2,3-d]pyrimidin-4-yl]oxy}-3-(4-fluoro-2-methoxyphenyl)propanoic acid], the IC50 at Mcl-1 protein (setting [3]) was 1.7e-08 M; in test [1] (Homo sapiens, NCI-H929, 48 h) it was 0.063 µM.
Regarding `Cc1c(-c2c(-c3cncs3)sc3ncnc(OC(Cc4ccccc4)C(=O)O)c23)ccc(OCCN2CCN(C)CC2)c1Cl` [Example 512, (2R)-2-{[(5Sa)-5-{3-chloro-2-methyl-4-[2-(4-methylpiperazin-1-yl)ethoxy]phenyl}-6-(1,3-thiazol-5-yl)thieno[2,3-d]pyrimidin-4-yl]oxy}-3-phenylpropanoic acid], the half-maximal inhibitory concentration (IC50) on Mcl-1 protein (setting [2]) came out at 1.3e-07 M; in test [1] (Homo sapiens, NCI-H929, 48 h), 7.42 µM.
In the same order, the values of `Cc1c(-c2c(-c3ccc(F)nc3)sc3ncnc(OC(Cc4ccccc4OCc4ccnn4CC(F)(F)F)C(=O)O)c23)ccc(OCCN2CCN(C)CC2)c1Cl` [Example 693, (2R)-2-{[(5Sa)-5-{3-chloro-2-methyl-4-[2-(4-methylpiperazin-1-yl)ethoxy]phenyl}-6-(6-fluoropyridin-3-yl)thieno[2,3-d]pyrimidin-4-yl]oxy}-3-(2-{[1-(2,2,2-trifluoroethyl)-1H-pyrazol-5-yl]methoxy}phenyl)propanoic acid] are 9.3e-10 M and 0.101 µM.

A word on the IC50: it is the concentration needed to halve the response being measured.
